From ChEMBL document CHEMBL4177694, “Discovery of the first low-shift positive allosteric modulators for the muscarinic M1 receptor” (Bioorg Med Chem Lett, 2017)
pEC50: −log10 of the molar value. The source made the active and inactive calls. The rule behind the calls is not given here.

Legend:
[1] = target: T1, Muscarinic acetylcholine receptor M1 (Homo sapiens) (UniProt P11229); experiment: Positive allosteric modulation of human wild type M1 receptor assessed as increase in acetylcholine-induced calcium flux by FLIPR assay relative to acetylcholine; format: functional
T1 sequence (whole entry): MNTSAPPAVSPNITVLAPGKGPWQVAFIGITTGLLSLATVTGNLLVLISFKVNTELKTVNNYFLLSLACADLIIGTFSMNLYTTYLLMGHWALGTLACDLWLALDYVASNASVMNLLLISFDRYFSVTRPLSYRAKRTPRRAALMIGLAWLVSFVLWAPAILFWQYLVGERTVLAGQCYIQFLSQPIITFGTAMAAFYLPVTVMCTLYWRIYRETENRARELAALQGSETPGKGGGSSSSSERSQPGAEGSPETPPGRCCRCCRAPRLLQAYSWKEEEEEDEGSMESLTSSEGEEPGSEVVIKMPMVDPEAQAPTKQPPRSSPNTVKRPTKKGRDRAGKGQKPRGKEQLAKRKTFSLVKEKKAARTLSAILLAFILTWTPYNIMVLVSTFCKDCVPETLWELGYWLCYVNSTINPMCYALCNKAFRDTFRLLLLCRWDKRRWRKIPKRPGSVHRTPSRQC

[2] = target: Muscarinic acetylcholine receptor M5 (Homo sapiens) (UniProt P08912); experiment: Positive allosteric modulation of M5 receptor (unknown origin) relative to control; format: functional
[3] = target: Muscarinic acetylcholine receptor M5 (Homo sapiens, UniProt P08912); experiment: Positive allosteric modulation of M5 receptor (unknown origin); format: functional
[4] = tested on: Muscarinic acetylcholine receptor M1 (Homo sapiens), P11229 [Y179A,W400A]; experiment: Positive allosteric modulation of M1 receptor Y179A/W400A mutant (unknown origin) relative to control
[5] = target: T1, Muscarinic acetylcholine receptor M1 (Homo sapiens); experiment: Antagonist activity at M1 receptor (unknown origin); format: functional
[6] = target: Muscarinic acetylcholine receptor M1 (Homo sapiens, UniProt P11229, W400A/Y179A); experiment: Positive allosteric modulation of M1 receptor Y179A/W400A mutant (unknown origin)
[7] = target: T2, Muscarinic acetylcholine receptor M1 (Homo sapiens, UniProt P11229); experiment: Positive allosteric modulation of human wild type M1 receptor assessed as increase in acetylcholine-induced calcium flux by FLIPR assay; format: functional
T2 sequence (P11229 whole entry): T1 sequence (whole entry)

[8] = target: Muscarinic acetylcholine receptor M2 (Homo sapiens) (UniProt P08172); experiment: Agonist activity at M2 receptor (unknown origin) up to 10 uM; format: functional
[9] = target: Muscarinic acetylcholine receptor M2 (Homo sapiens) (UniProt P08172); experiment: Positive allosteric modulation of M2 receptor (unknown origin); format: functional
[10] = target: T1, Muscarinic acetylcholine receptor M1 (Homo sapiens); experiment: Receptor occupancy at M1 receptor (unknown origin) at EC50
[11] = target: Muscarinic acetylcholine receptor M4 (Homo sapiens) (UniProt P08173); experiment: Agonist activity at M4 receptor (unknown origin) up to 10 uM; format: functional
[12] = target: Muscarinic acetylcholine receptor M5 (Homo sapiens) (UniProt P08912); experiment: Agonist activity at M5 receptor (unknown origin) up to 10 uM; format: functional
[13] = target: T1, Muscarinic acetylcholine receptor M1 (Homo sapiens); experiment: Agonist activity at M1 receptor (unknown origin) up to 10 uM; format: functional
[14] = target: Muscarinic acetylcholine receptor M1 (Rattus norvegicus) (UniProt P08482); experiment: Positive allosteric modulation of rat M1 receptor assessed as increase in acetylcholine-induced calcium flux by FLIPR assay relative to acetylcholine; format: functional
[15] = target: Muscarinic acetylcholine receptor M3 (Homo sapiens) (UniProt P20309); experiment: Agonist activity at M3 receptor (unknown origin) up to 10 uM; format: functional
[16] = target: Muscarinic acetylcholine receptor M1 (Rattus norvegicus, UniProt P08482); experiment: Positive allosteric modulation of rat M1 receptor assessed as increase in acetylcholine-induced calcium flux by FLIPR assay; format: functional
[17] = Drug metabolism in rat microsomes assessed as amide formation; format: ADME, Microsome
[18] = Stability in human microsomes; format: ADME, Microsome
[19] = Stability in mouse microsomes; format: ADME, Microsome
[20] = Activity at P-gp (unknown origin); format: ADME; settings: human
[21] = target: Cytochrome P450 3A4 (Homo sapiens, UniProt P08684); experiment: Inhibition of CYP3A4 (unknown origin); format: ADME
[22] = target: Gamma-aminobutyric acid receptor subunit alpha-2/beta-3/gamma-2 (Rattus norvegicus, UniProt P18508+P23576+P63079); experiment: […] rat GABA-A receptor alpha2beta3gamma2 expressed in HEK293 cells by electrophysiology assay; format: cell-based
[23] = target: GABA-A receptor; alpha-2/beta-3/gamma-2 (Homo sapiens, UniProt P18507+P28472+P47869); experiment: […] human GABA-A receptor alpha2beta3gamma2 expressed in HEK293 cells by electrophysiology assay; format: cell-based
[24] = target: GABA-A receptor; alpha-1/beta-2/gamma-2 (Rattus norvegicus, UniProt P18508+P62813+P63138); experiment: […] rat GABA-A receptor alpha1beta2gamma2 expressed in HEK293 cells by electrophysiology assay; format: cell-based
[25] = target: GABA-A receptor; alpha-1/beta-2/gamma-2 (Homo sapiens, UniProt P14867+P18507+P47870); experiment: […] human GABA-A receptor alpha1beta2gamma2 expressed in HEK293 cells by electrophysiology assay; format: cell-based
[26] = target: Gamma-aminobutyric acid receptor subunit alpha-3/beta-3/gamma-2 (Rattus norvegicus, UniProt P18508+P20236+P63079); experiment: […] rat GABA-A receptor alpha3beta3gamma2 expressed in HEK293 cells by electrophysiology assay; format: cell-based
[27] = target: GABA A receptor alpha-5/beta-3/gamma-2 (Rattus norvegicus, UniProt P18508+P19969+P63079); experiment: […] rat GABA-A receptor alpha5beta3gamma2 expressed in HEK293 cells by electrophysiology assay; format: cell-based
[28] = target: GABA-A receptor; alpha-5/beta-3/gamma-2 (Homo sapiens, UniProt P18507+P28472+P31644); experiment: […] human GABA-A receptor alpha5beta3gamma2 expressed in HEK293 cells by electrophysiology assay; format: cell-based
[29] = target: GABA-A receptor; alpha-3/beta-3/gamma-2 (Homo sapiens, UniProt P18507+P28472+P34903); experiment: […] human GABA-A receptor alpha3beta3gamma2 expressed in HEK293 cells by electrophysiology assay; format: cell-based

Chain of Muscarinic acetylcholine receptor M2 (Homo sapiens) (P08172 whole entry): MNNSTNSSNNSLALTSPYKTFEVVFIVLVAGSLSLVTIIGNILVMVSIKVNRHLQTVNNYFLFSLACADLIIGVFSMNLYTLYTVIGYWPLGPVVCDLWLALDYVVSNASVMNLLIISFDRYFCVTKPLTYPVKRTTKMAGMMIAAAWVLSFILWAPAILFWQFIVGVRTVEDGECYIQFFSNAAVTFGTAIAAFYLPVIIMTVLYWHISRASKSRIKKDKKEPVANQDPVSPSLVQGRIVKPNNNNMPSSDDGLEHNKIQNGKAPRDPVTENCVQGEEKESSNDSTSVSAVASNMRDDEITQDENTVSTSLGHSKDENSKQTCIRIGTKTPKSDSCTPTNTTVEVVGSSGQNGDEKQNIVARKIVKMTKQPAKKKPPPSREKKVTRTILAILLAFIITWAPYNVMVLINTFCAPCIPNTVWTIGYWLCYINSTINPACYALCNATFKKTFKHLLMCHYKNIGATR
Chain of Muscarinic acetylcholine receptor M5 (Homo sapiens) (P08912 whole entry): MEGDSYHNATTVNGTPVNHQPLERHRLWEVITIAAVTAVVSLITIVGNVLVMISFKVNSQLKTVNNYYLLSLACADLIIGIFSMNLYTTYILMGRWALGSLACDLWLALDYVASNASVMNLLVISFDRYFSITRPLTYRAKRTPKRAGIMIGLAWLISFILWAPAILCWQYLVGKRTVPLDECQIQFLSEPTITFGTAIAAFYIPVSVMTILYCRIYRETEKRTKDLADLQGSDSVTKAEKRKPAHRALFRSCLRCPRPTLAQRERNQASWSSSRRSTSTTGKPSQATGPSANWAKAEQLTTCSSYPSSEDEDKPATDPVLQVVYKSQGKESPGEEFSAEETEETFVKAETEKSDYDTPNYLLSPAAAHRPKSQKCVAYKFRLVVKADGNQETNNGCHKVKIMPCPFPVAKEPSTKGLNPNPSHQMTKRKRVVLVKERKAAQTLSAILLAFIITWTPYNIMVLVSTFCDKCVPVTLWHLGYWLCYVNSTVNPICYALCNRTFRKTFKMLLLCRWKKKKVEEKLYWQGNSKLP
Chain of GABA A receptor alpha-5/beta-3/gamma-2 (P18508 whole entry): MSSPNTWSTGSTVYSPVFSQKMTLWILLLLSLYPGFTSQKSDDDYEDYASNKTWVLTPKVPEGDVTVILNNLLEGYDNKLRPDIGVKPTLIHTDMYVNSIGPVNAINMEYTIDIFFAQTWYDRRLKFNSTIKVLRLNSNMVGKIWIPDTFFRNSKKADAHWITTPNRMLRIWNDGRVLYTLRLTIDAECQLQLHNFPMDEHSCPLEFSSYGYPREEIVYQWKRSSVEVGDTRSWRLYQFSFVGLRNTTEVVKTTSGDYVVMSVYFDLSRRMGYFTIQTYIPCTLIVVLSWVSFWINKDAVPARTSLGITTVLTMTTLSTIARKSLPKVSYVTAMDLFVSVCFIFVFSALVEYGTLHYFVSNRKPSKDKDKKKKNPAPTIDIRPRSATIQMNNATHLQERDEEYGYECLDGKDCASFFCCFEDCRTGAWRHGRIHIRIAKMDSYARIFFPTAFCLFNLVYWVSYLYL
Chain of GABA A receptor alpha-5/beta-3/gamma-2 (P19969 whole entry): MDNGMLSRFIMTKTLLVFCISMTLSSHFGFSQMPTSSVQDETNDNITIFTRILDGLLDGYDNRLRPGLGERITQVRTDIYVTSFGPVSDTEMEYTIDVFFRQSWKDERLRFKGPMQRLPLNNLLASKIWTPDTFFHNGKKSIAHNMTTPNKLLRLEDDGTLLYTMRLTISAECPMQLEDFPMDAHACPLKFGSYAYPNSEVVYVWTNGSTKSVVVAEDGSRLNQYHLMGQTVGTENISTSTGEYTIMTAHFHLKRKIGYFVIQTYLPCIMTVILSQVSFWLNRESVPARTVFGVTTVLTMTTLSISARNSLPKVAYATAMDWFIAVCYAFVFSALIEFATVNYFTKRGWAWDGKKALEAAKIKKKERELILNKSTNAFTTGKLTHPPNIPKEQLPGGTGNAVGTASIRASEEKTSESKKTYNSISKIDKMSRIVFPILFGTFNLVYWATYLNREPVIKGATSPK
Chain of GABA A receptor alpha-5/beta-3/gamma-2 (P63079 whole entry): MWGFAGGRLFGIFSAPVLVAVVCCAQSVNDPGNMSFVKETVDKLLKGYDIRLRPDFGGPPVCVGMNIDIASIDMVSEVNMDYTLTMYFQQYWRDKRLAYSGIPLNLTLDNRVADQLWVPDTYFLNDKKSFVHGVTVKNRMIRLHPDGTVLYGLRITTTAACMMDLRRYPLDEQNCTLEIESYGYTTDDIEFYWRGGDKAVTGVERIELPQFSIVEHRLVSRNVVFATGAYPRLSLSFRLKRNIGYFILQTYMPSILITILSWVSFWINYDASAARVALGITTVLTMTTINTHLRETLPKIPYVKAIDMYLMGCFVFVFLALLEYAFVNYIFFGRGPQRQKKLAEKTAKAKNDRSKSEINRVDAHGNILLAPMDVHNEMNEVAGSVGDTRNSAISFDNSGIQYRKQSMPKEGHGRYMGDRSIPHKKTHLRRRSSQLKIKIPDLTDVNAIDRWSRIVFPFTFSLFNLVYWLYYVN
Chain of GABA-A receptor; alpha-1/beta-2/gamma-2 (Rattus norvegicus, UniProt P18508+P62813+P63138) (P18508 whole entry): as the sequence (P18508 whole entry) above
Chain of GABA-A receptor; alpha-1/beta-2/gamma-2 (Rattus norvegicus, UniProt P18508+P62813+P63138) (P62813 whole entry): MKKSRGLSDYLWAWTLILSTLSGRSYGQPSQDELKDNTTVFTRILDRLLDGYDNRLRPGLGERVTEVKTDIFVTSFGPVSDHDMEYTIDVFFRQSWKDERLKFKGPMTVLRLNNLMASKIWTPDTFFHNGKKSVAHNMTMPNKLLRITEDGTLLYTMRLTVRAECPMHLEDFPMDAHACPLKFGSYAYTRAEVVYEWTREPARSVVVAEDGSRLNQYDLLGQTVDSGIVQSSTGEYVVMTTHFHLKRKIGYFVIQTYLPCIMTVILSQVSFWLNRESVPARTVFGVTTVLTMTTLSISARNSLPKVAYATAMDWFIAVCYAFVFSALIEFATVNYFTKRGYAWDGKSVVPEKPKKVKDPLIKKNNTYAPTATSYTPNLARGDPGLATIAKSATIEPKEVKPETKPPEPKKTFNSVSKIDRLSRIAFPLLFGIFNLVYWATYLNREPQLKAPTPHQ
Chain of GABA-A receptor; alpha-1/beta-2/gamma-2 (Rattus norvegicus, UniProt P18508+P62813+P63138) (P63138 whole entry): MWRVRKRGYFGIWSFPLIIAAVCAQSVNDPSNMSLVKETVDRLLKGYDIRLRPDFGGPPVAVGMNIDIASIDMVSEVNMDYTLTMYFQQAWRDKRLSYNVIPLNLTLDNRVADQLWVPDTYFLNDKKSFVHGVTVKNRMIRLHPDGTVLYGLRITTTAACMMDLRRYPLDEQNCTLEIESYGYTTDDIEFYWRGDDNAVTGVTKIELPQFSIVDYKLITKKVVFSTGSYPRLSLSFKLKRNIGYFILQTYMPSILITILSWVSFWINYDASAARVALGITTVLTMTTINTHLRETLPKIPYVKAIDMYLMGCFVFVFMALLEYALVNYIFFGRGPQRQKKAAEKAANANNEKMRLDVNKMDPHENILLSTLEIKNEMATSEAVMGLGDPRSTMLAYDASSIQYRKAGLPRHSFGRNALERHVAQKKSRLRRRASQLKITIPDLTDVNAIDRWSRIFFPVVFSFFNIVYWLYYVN
Chain of Muscarinic acetylcholine receptor M4 (Homo sapiens) (P08173 whole entry): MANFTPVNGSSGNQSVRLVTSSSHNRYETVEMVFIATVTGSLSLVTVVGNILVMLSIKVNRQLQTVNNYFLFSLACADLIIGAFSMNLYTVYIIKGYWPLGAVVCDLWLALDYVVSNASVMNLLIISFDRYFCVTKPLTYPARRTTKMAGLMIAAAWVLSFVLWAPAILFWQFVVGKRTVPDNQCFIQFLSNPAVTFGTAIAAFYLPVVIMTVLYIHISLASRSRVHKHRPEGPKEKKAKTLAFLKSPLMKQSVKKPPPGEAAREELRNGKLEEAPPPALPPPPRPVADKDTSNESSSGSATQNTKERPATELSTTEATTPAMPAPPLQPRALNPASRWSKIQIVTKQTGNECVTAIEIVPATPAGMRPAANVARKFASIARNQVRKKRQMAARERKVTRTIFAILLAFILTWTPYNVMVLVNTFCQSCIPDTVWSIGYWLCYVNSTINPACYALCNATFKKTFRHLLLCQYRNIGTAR
Chain of Muscarinic acetylcholine receptor M5 (P08912 whole entry): as the sequence (P08912 whole entry) above

CC(C)[C@@H]1N=C(c2ccccc2F)c2cc(Cl)ccc2NC1=S
Emax [1]: 78% | Emax [2]: 70% | pEC50 [3]: 5.89 | Emax [4]: 80% | Kb [5]: 610 nM | pEC50 [6]: 6.75 | pEC50 [7]: 7.10 | Activity [8]: inactive | Activity [9]: inactive | Occ [10]: 33% | Activity [11]: inactive | Activity [12]: inactive | Activity [13]: inactive | Emax [14]: 88% | Activity [15]: inactive | pEC50 [16]: 6.66

CC(C)[C@@H]1N=C(c2ccccc2)c2cc(C(F)(F)F)ccc2NC1=S
Emax [1]: 72% | Drug metabolism [17]: Metabolite_Detected | Stability [18]: Stable | pEC50 [7]: 7.15 | Stability [19]: Stable | Activity [20]: Not Active | inhibition (INH) [21]: Not Active

CC(C)[C@@H]1N=C(c2ccccc2)c2cc(Cl)ccc2NC1=S
Emax [1]: 102% | pEC50 [22]: < 4.62 | pEC50 [23]: < 4.62 | pEC50 [24]: < 4.62 | pEC50 [7]: 7.15 | pEC50 [25]: < 4.62 | pEC50 [26]: < 4.62 | pEC50 [27]: < 4.62 | pEC50 [28]: < 4.62 | pEC50 [29]: < 4.62
